From article PMC6684654 (Nature Communications, 2019)
Converted amounts (≈) assume the structure as drawn.

Assays:
Test in all cases: Antibiotic susceptibility (MIC), automated identification system
Type in all cases: cell-based
K. pneumoniae ATCC13883 = conditions: Supplementary Table 2; for MIC: Klebsiella pneumoniae, ATCC13883
From the text: (§1) Clinical isolate strains were identified and screened by the Phoenix 100 automated bacterial identification system to rapidly detect antimicrobial resistance. Total DNA was extracted by the TIANamp Bacteria DNA Kit according to the manufacturer’s protocol. The presence of blaNDM-1 was confirmed using a diagnostic kit for NDM-1 (Puruikang Bio Inc., Shenzhen, China) based on fluorescent quantitative polymerase chain reaction assay. According to the instruction, Ct values of less than 37 were considered positive.

E. coli ATCC25922 = conditions: Supplementary Table 1; for MIC: Escherichia coli, ATCC25922
From the text: as §1

NDM-1 E. coli XJ141047 = conditions: Supplementary Table 1; for MIC: Escherichia coli
From the text: as §1

[1] = tested on: NDM-1 K. pneumoniae XJ155017; conditions: Supplementary Table 2; for MIC: Klebsiella pneumoniae
From the text: as §1

[2] = tested on: NDM-1 K. pneumoniae XJ155018; conditions: Supplementary Table 2; for MIC: Klebsiella pneumoniae
From the text: as §1

[3] = tested on: NDM-1 K. pneumoniae XJ155020; conditions: Supplementary Table 2; for MIC: Klebsiella pneumoniae
From the text: as §1

NDM-1 E. coli XJ141026 = conditions: Supplementary Table 1; for MIC: Escherichia coli
From the text: as §1

NDM-1 E. coli XJ141015 = conditions: Supplementary Table 1; for MIC: Escherichia coli
From the text: as §1

[4] = tested on: NDM-1 K. pneumoniae XJ155019; conditions: Supplementary Table 2; for MIC: Klebsiella pneumoniae
From the text: as §1

Row | MIC (K. pneumoniae ATCC13883) | susceptibility class (MIC) (K. pneumoniae ATCC13883) | MIC (E. coli ATCC25922) | susceptibility class (MIC) (E. coli ATCC25922) | MIC (NDM-1 E. coli XJ141047) | susceptibility class (MIC) (NDM-1 E. coli XJ141047) | MIC [1] | susceptibility class (MIC) [1] | MIC [2] | susceptibility class (MIC) [2] | MIC [3] | susceptibility class (MIC) [3] | MIC (NDM-1 E. coli XJ141026) | susceptibility class (MIC) (NDM-1 E. coli XJ141026) | MIC (NDM-1 E. coli XJ141015) | susceptibility class (MIC) (NDM-1 E. coli XJ141015) | MIC [4] | susceptibility class (MIC) [4] | SMILES
1 | ≤ 8 µg/mL | S | ≤ 8 µg/mL | S | ≤ 8 µg/mL | S | ≤ 8 µg/mL | S | ≤ 8 µg/mL | S | ≤ 8 µg/mL | S | ≤ 8 µg/mL | S | ≤ 8 µg/mL | S | ≤ 8 µg/mL | S | NCC[C@H](O)C(=O)N[C@@H]1C[C@H](N)[C@@H](O[C@H]2O[C@H](CN)[C@@H](O)[C@H](O)[C@H]2O)[C@H](O)[C@H]1O[C@H]1O[C@H](CO)[C@@H](O)[C@H](N)[C@H]1O [Amikacin]
2 | 16 µg/mL (≈ 45.8 µM) | R | ≤ 4 µg/mL | S | > 16 µg/mL | R | > 16 µg/mL | R | > 16 µg/mL | R | > 16 µg/mL | R | > 16 µg/mL | R | > 16 µg/mL | R | > 16 µg/mL | R | CC1(C)S[C@@H]2[C@H](NC(=O)[C@H](N)c3ccccc3)C(=O)N2[C@H]1C(=O)O [Ampicillin]
3 | ≤ 2 µg/mL | S | ≤ 2 µg/mL | S | > 16 µg/mL | R | > 16 µg/mL | R | > 16 µg/mL | R | > 16 µg/mL | R | > 16 µg/mL | R | > 16 µg/mL | R | > 16 µg/mL | R | C[C@H]1[C@H](NC(=O)/C(=N\OC(C)(C)C(=O)O)c2csc(N)n2)C(=O)N1S(=O)(=O)O [Aztreonam]
4 | ≤ 4 µg/mL | S | ≤ 4 µg/mL | S | > 16 µg/mL | R | > 16 µg/mL | R | > 16 µg/mL | R | > 16 µg/mL | R | > 16 µg/mL | R | > 16 µg/mL | R | > 16 µg/mL | R | Cc1nnc(SCC2=C(C(=O)O)N3C(=O)[C@@H](NC(=O)Cn4cnnn4)[C@H]3SC2)s1 [Cefazolin]
5 | ≤ 2 µg/mL | S | ≤ 2 µg/mL | S | > 16 µg/mL | R | > 16 µg/mL | R | > 16 µg/mL | R | > 16 µg/mL | R | > 16 µg/mL | R | > 16 µg/mL | R | > 16 µg/mL | R | CO/N=C(\C(=O)N[C@@H]1C(=O)N2C(C(=O)[O-])=C(C[N+]3(C)CCCC3)CS[C@H]12)c1csc(N)n1 [Cefepime]
6 | ≤ 4 µg/mL | S | ≤ 4 µg/mL | S | ≤ 4 µg/mL | S | > 16 µg/mL | R | > 16 µg/mL | R | > 16 µg/mL | R | ≤ 4 µg/mL | S | > 16 µg/mL | R | > 16 µg/mL | R | O=C(N[C@H](CO)[C@H](O)c1ccc([N+](=O)[O-])cc1)C(Cl)Cl [Chloramphenicol]
7 | ≤ 2 µg/mL | S | ≤ 2 µg/mL | S | > 8 µg/mL | R | ≤ 2 µg/mL | S | ≤ 2 µg/mL | S | ≤ 2 µg/mL | S | > 8 µg/mL | R | ≤ 2 µg/mL | S | ≤ 2 µg/mL | S | CNC(C)C1CCC(N)C(OC2C(N)CC(N)C(OC3OCC(C)(O)C(NC)C3O)C2O)O1 (centres unmarked) [Gentamicin]
8 | ≤ 1 µg/mL | S | ≤ 1 µg/mL | S | ≤ 1 µg/mL | S |  |  |  |  | > 8 µg/mL | R | > 8 µg/mL | R | > 8 µg/mL | R | > 8 µg/mL | R | C[C@H]1COc2c(N3CCN(C)CC3)c(F)cc3c(=O)c(C(=O)O)cn1c23 [Levofloxacin]
9 | ≤ 1 µg/mL | S | ≤ 1 µg/mL | S | ≤ 1 µg/mL | S | > 4 µg/mL | R | > 4 µg/mL | R | > 4 µg/mL | R | > 4 µg/mL | R | > 4 µg/mL | R | > 4 µg/mL | R | COc1c(N2C[C@@H]3CCCN[C@@H]3C2)c(F)cc2c(=O)c(C(=O)O)cn(C3CC3)c12 [Moxifloxacin]

Row | SMILES | MIC (K. pneumoniae ATCC13883) | susceptibility class (MIC) (K. pneumoniae ATCC13883) | MIC (E. coli ATCC25922) | susceptibility class (MIC) (E. coli ATCC25922) | MIC (NDM-1 E. coli XJ141047) | susceptibility class (MIC) (NDM-1 E. coli XJ141047) | MIC [1] | susceptibility class (MIC) [1] | MIC [2] | susceptibility class (MIC) [2] | MIC [3] | susceptibility class (MIC) [3] | MIC (NDM-1 E. coli XJ141026) | susceptibility class (MIC) (NDM-1 E. coli XJ141026) | MIC (NDM-1 E. coli XJ141015) | susceptibility class (MIC) (NDM-1 E. coli XJ141015) | MIC [4] | susceptibility class (MIC) [4]
10 | CN(C)[C@@H]1C(O)=C(C(N)=O)C(=O)[C@@]2(O)C(O)=C3C(=O)c4c(O)cccc4[C@@](C)(O)[C@H]3C[C@@H]12 [Tetracycline] | ≤ 2 µg/mL | S | ≤ 2 µg/mL | S | ≤ 2 µg/mL | S | 4 µg/mL (≈ 9 µM) | S | > 8 µg/mL | R | > 8 µg/mL | R | > 8 µg/mL | R | ≤ 2 µg/mL | S | > 8 µg/mL | R
